According to patent publication US5674905A, “Bicyclooctane and bicycloheptane derivatives” (James Black Foundation Limited, priority 1992, dated 1997):

Target: T1, CCKB receptor (Mus musculus, UniProt P56481)
T1 construct: The cortex was dissected, weighed and homogenised in 40 ml ice-cold buffer; from tissue; host or cells: cerebral cortex membranes of male CD1 mice (Charles River)
T1 sequence (P56481 1-453): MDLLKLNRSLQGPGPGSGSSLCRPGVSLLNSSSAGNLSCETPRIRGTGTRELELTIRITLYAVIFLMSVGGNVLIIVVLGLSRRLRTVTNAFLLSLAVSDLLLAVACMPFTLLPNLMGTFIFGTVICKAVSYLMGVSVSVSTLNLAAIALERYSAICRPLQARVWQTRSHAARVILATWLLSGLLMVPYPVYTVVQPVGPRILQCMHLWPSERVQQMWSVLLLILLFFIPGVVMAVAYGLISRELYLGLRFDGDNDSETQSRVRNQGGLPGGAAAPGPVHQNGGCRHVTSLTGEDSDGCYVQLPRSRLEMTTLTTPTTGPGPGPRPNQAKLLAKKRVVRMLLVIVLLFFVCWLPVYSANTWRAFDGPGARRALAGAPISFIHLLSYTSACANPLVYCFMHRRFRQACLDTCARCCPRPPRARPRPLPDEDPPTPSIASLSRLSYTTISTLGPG
Test: radioligand binding assay at the CCKB receptor in mouse cortical membranes ([125I]-CCK8S)
Settings: 150 min at 21±3°
Protocol: The compounds of the examples were tested for binding at the CCKB receptor in mouse cortical membranes by means of a radioligand binding assay. The procedure was as follows:
The whole brains from male mice (CD1 22-25 g; Charles River) were removed and placed in ice-cold buffer (pH7.2 @ 21±3 °) of the following composition (mM); 10 HEPES, 130 NaCl, 4.7 KCl, 5 MgCl2, 1 EDTA and containing 0.25 g.1^-1 bacitracin. The cortex was dissected, weighed and homogenised in 40 ml ice-cold buffer using a Teflon-in-glass homogeniser. The homogenate was centrifuged at 39,800 g for 20 min at @ 4°, the supernatant discarded and the pellet resuspended by homogenisation in fresh buffer. The homogenate was recentrifuged (39,800 g; 20 min @4°) and the final pellet was resuspended in HEPES buffer to give a tissue concentration of 2 mg.ml^-1 (original wet weight).
The membranes ([…]) were incubated for 150 min at 21±3° in a final volume of 0.5 ml with HEPES buffer containing [^125 I]-CCK8S (0.05 ml; 200 pM NEN 2200 Ci.mmol^-1) and competing compound. Total and non-specific binding of [^125 I]-CCK8S were defined using 0.05 ml of buffer and 0.05 ml of […] L-365,260, respectively. The assay was terminated by rapid filtration through pre-soaked Whatman GF/B filters using a Brandell Cell harvester. The filters were washed (3×3 ml) with ice-cold 50 mM Tris-HC1 (pH7.4 @ 4° C.) and bound radioactivity determined by counting (1 min.) in a gamma-counter.

Row | CCKB pKi | SMILES
1 | 5.5 | O=C(NCC12CC3CC(CC(C3)C1)C2)C1C2CC(c3ccccc32)C1C(=O)N1CCC[C@@H]1C(=O)O (mixture of isomers) [Example 59, (±)-endo-cis-6-(2R-carboxy-pyrrolidinocarbonyl)-7-(1-adamantylmethylaminocarbonyl)-2,3-benzobicyclo[2.2.1]heptane]

Same assay, conditions: 150 min at 21±3°, read-out: CCKB pKi (converted)

Row | SMILES | Ki
2 | O=C(NCC1CCCCC1)[C@@H]1[C@H](C(=O)O)[C@@H]2C=C[C@H]1c1ccccc12 (relative stereo) [Example 3, exo-(±)-cis8-(1-cyclohexylmethylaminocarbonyl)-5,6-benzobicyclo[2.2.2]oct-2-ene-7-carboxylic acid] | 25100 nM
3 | O=C(NCC12CC3CC(CC(C3)C1)C2)[C@@H]1[C@H](C(=O)O)[C@@H]2C=C[C@H]1c1ccccc12 (relative stereo) [Example 1, exo-(±)-cis-8-(1-adamantylmethylaminocarbonyl)-5,6-benzobicyclo[2.2.2]oct-2-ene-7-carboxylic acid] | 3980 nM
4 | C[C@H](NC(=O)[C@H]1CCCN1C(=O)C1C2CCC(c3ccccc32)C1C(=O)NCC12CC3CC(CC(C3)C1)C2)C(=O)O (stereo partly drawn) [Example 40, cis-exo-7-(2R-(1S-carboxyethylaminocarbonyl)-pyrrolidinocarbonyl)-8-(1-adamantylmethylaminocarbonyl)-2,3-benzobicyclo-[2.2.2.]octane] | 7940 nM
5 | O=C(O)C1C2CC(c3ccccc32)C1C(=O)NCC12CC3CC(CC(C3)C1)C2 (mixture of isomers) [Example 57, endo-cis-(±)-7-(1-adamantylmethylaminocarbonyl)-2,3-benzobicyclo[2.2.1]hept-6-carboxylic acid] | 5010 nM
6 | C[C@H](NC(=O)[C@@H]1CCCN1C(=O)C1C2CCC(c3ccccc32)C1C(=O)NCC12CC3CC(CC(C3)C1)C2)C(=O)O (stereo partly drawn) [Example 51, cis-endo-7-(2S-(1S-carboxyethylaminocarbonyl)-pyrrolidinocarbonyl)-8-(1-adamantylmethylaminocarbonyl)-2,3-benzobicyclo[2.2.2]octane] | 5010 nM
7 | O=C(O)[C@@H]1[C@H](C(=O)NCC2CCCCC2)[C@H]2C=C[C@@H]1c1ccccc12 (relative stereo) [Example 4, endo-(±)-cis-8-(1-cyclohexylmethylaminocarbonyl)-5,6-benzobicyclo[2.2.2]oct-2-ene-7-carboxylic acid] | 39800 nM
8 | O=C(NCC12CC3CC(CC(C3)C1)C2)C1C(C(=O)N2CCC[C@@H]2C(=O)O)C2C=CC1C2(c1ccccc1)c1ccccc1 (mixture of isomers) [Example 53] | 1580 nM
9 | O=C(NCC12CC3CC(CC(C3)C1)C2)C1C2C=CC(CC2)C1C(=O)N1CCC[C@@H]1C(=O)O (mixture of isomers) [Example 33, cis-(±)-2-(1-R-carboxy-pyrrolidinocarbonyl)-3-(1-adamantylmethylaminocarbonyl)-bicyclo[2.2.2]oct-5-ene] | 15800 nM
10 | COC(=O)[C@H]1CCCN1C(=O)C1C2C=CC(c3ccccc32)C1C(=O)NCC12CC3CC(CC(C3)C1)C2 (stereo partly drawn) [Example 32, exo-cis-7-(2-R-methoxycarbonyl-pyrrolidinocarbonyl)-8-(1-adamantylmethylaminocarbonyl)-5,6-benzo-bicyclo[2.2.2]oct-2-ene] | 316 nM
11 | C[C@@H](NC(=O)[C@@H]1CCCN1C(=O)C1C2CCC(c3ccccc32)C1C(=O)NCC12CC3CC(CC(C3)C1)C2)C(=O)O (stereo partly drawn) [Example 50, cis-endo-7-(2S-(1R-carboxyethylaminocarbonyl)-pyrrolidinocarbonyl)-8-(1-adamantylmethylaminocarbonyl)-2,3-benzobicyclo[2.2.2]octane] | 2510 nM
12 | CCCCCCCCNC(=O)[C@@H]1[C@H](C(=O)O)[C@@H]2C=C[C@H]1c1ccccc12 (relative stereo) [Example 5, exo-(±)-cis-8-(octylaminocarbonyl)-5,6-benzobicyclo[2.2.2]oct-2-ene-7-carboxylic acid] | 12600 nM
13 | CCCCCCCCNC(=O)[C@H]1[C@@H](C(=O)O)[C@@H]2C=C[C@H]1c1ccccc12 (relative stereo) [Example 6, endo-(±)-cis-8-(octylamino-carbonyl)-5,6-benzobicyclo[2.2.2]oct-2-ene-7-carboxylic acid] | 25100 nM

More lines, now with the values ahead:

Row | Ki | SMILES
14 | 316 nM | O=C(O)C1C2c3ccccc3C(c3cc4ccccc4cc32)C1C(=O)NCC12CC3CC(CC(C3)C1)C2 (racemic) [Example 14, endo and exo cis-(±)-8-(1-adamantylmethylaminocarbonyl)-2,3-benzo-5,6-(2,3-naphtho)bicyclo[2.2.2]octane-7-carboxylic acid]
15 | 398 nM | O=C(O)CNC(=O)[C@H]1CCCN1C(=O)C1C2CCC(c3ccccc32)C1C(=O)NCC12CC3CC(CC(C3)C1)C2 (stereo partly drawn) [Example 46, cis-endo-7-(2R-carboxymethylaminocarbonyl-pyrrolidinocarbonyl)-8-(1-adamantylmethylaminocarbonyl)-2,3-benzobicyclo[2.2.2]octane]
16 | 158 nM | O=C(NCC12CC3CC(CC(C3)C1)C2)C1C2c3ccccc3C(c3cc4ccccc4cc32)C1C(=O)N1CCC[C@@H]1C(=O)O (stereo partly drawn) [Example 20, endo and exo cis-7-(2-R-carboxypyrrolidinocarbonyl)-8-(1-adamantylmethylaminocarbonyl)-2,3-benzo-5,6-(2,3-naphtho)bicyclo[2.2.2]octane]
17 | 2000 nM | O=C(NCC12CC3CC(CC(C3)C1)C2)C1C2C=CC(c3ccccc32)C1C(=O)N1C[C@H](O)C[C@@H]1C(=O)O (stereo partly drawn) [Example 28, endo-cis-7-(2-R-carboxy-4-R-hydroxy-pyrrolidinocarbonyl)-8-(1-adamantylmethylaminocarbonyl)-5,6-benzo-bicyclo[2.2.2]oct-2-ene]
18 | 398 nM | COC(=O)[C@@H]1CCCN1C(=O)C1C2c3ccccc3C(c3cc4ccccc4cc32)C1C(=O)NCC12CC3CC(CC(C3)C1)C2 (stereo partly drawn) [Example 21, endo and exo cis-7-(2-S-methoxy-carbonylpyrrolidinocarbonyl)-8-(1-adamantylmethylaminocarbonyl)-2,3-benzo-5,6-(2,3-naphtho) bicyclo-[2.2.2]octane]
19 | 100 nM | C[C@@H](NC(=O)C[C@@H]1CCCN1C(=O)C1C2CCC(c3ccccc32)C1C(=O)NCC12CC3CC(CC(C3)C1)C2)C(=O)O (stereo partly drawn) [Example 52, cis-endo-7-(2S-(1R-carboxyethylaminocarbonylmethyl)-pyrrolidinocarbonyl)-8-(1-adamantylmethylaminocarbonyl)-2,3-benzobicyclo[2.2.2]octane]
20 | 1000 nM | C[C@@H](NC(=O)[C@@H]1CCCN1C(=O)C1C2CCC(c3ccccc32)C1C(=O)NCC12CC3CC(CC(C3)C1)C2)C(=O)O (stereo partly drawn) [Example 44, cis-exo-7-(2S-(1R-carboxyethylaminocarbonyl)-pyrrolidinocarbonyl)-8-(1-adamantylmethylaminocarbonyl)-2,3-benzobicyclo[2.2.2]octane]
21 | 3980 nM | O=C(O)CNC(=O)[C@@H]1CCCN1C(=O)C1C2CCC(c3ccccc32)C1C(=O)NCC12CC3CC(CC(C3)C1)C2 (stereo partly drawn) [Example 49, cis-endo-7-(2S-carboxymethylaminocarbonyl-pyrrolidinocarbonyl)-8-(1-adamantylmethylaminocarbonyl)-2,3-benzobicyclo[2.2.2]octane]
22 | 794 nM | C[C@H](NC(=O)[C@H]1CCCN1C(=O)C1C2CCC(c3ccccc32)C1C(=O)NCC12CC3CC(CC(C3)C1)C2)C(=O)O (stereo partly drawn) [Example 48, cis-endo-7-(2R-(1S-carboxyethylaminocarbonyl)-pyrrolidinocarbonyl)-8-(1-adamantylmethylaminocarbonyl)-2,3-benzobicyclo[2.2.2]octane]
